Among the test systems are NCI-H23; HOP-92; Malme-3M; ACHN; LOX IMVI; NCI-H460; COLO 205; OVCAR-8; SF-539; HCC 2998; OVCAR-4; 786-0; EKVX; MOLT-4; UO-31; KM12; A498; NCI-H522.
Assay in all cases: growth of human tumour cells (NCI), 48 h

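These data come from cells grown in 96-well plates and exposed to compound for 48 hours at five concentrations. The concentration for 50% growth inhibition is given as GI50.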 Activity calls are given as the source filed them. Cut-off read from the data, not from the text of the source: active = GI50 up to about 1.1 µM and inactive = higher. Where only a bound is given, the exact number is not on record here.

For the compound `CCCCN(CCCC)C(=O)C(=O)C(C(=O)c1ccc(OC)cc1)c1ccc(OC)cc1` (centres undefined), the GI50 in the test with NCI-H23 was > 100 µM (inactive); in the test with HOP-92, 27.4 µM (inactive); in the test with Malme-3M, > 100 µM (inactive); with ACHN, > 100 µM (inactive); with LOX IMVI, > 100 µM (inactive); in the test with NCI-H460, > 100 µM (inactive). Also, the GI50 in the test with COLO 205, with OVCAR-8, with SF-539, with HCC 2998, with OVCAR-4 and with 786-0 was > 100 µM (inactive) each time. The GI50 with EKVX, in the test on MOLT-4, with UO-31 and in the test with KM12 was > 100 µM (inactive) throughout.

Take `O=C1CCCC/C1=C\c1ccc(Cl)c(Cl)c1`: the GI50 was 23.3 µM (inactive) with NCI-H23; 18.3 µM (inactive) in the test on ACHN; 18 µM (inactive) with LOX IMVI; 20.1 µM (inactive) with NCI-H460; 58.5 µM (inactive) with A498; 35.1 µM (inactive) in the test with COLO 205. The GI50 in the test with OVCAR-8 is 23.6 µM (inactive); with SF-539, 17.2 µM (inactive); in the test on HCC 2998 it was 21.7 µM (inactive); with OVCAR-4, 18.2 µM (inactive); with 786-0, > 10 µM (inactive); in the test on EKVX, 45.7 µM (inactive). Besides, the figures for the GI50 in the test on MOLT-4 and with UO-31 were 18.1 µM (inactive) and 17.8 µM (inactive), respectively.

Regarding `COc1ccc(Sc2ccccc2[N+](=O)[O-])cc1`, the GI50 was 31.2 µM (inactive) in the test on NCI-H23; 18.7 µM (inactive) in the test on HOP-92; 13 µM (inactive) in the test with Malme-3M; 12.9 µM (inactive) in the test on LOX IMVI; 16.8 µM (inactive) with NCI-H460; 50.7 µM (inactive) with A498. The GI50 with COLO 205 was 5.69 µM (inactive); in the test with OVCAR-8, 30.8 µM (inactive); with SF-539 it was 26 µM (inactive); in the test on HCC 2998, 8.36 µM (inactive); in the test with OVCAR-4, 65.3 µM (inactive); in the test with EKVX it was 37 µM (inactive). The GI50 was 16.1 µM (inactive) in the test with MOLT-4, 23.4 µM (inactive) in the test with UO-31 and 6.44 µM (inactive) in the test with KM12.

Turning to `O=C(c1ccccc1)c1c(CC(O)c2ccncc2)n(C(=O)c2ccccc2)c2ccccc12` (centres undefined), the GI50 in the test with NCI-H23 was 16 µM (inactive); in the test on HOP-92, 15 µM (inactive); in the test on Malme-3M, 18 µM (inactive); in the test on NCI-H522, 13.2 µM (inactive); in the test with ACHN it was 20.2 µM (inactive); with NCI-H460 it was 18.7 µM (inactive). Further, the GI50 in the test with COLO 205 is 17.9 µM (inactive); in the test on OVCAR-8 it was 30 µM (inactive); in the test with SF-539 it was 17.9 µM (inactive); in the test on HCC 2998, 17.1 µM (inactive); in the test with OVCAR-4 it was 15.8 µM (inactive); in the test with 786-0, 17 µM (inactive). Also, the GI50 with MOLT-4 is 18.2 µM (inactive); in the test on UO-31, 14.6 µM (inactive); in the test on KM12, 19.2 µM (inactive).

On to `NC(=O)c1ncn(Cc2ccccc2)c1CNC(N)=S`, for which the GI50 in the test with NCI-H23, with ACHN, in the test with LOX IMVI, with NCI-H460, in the test with COLO 205 and in the test with OVCAR-8 was > 100 µM (inactive) each time. Also, the GI50 with SF-539, with HCC 2998, in the test with OVCAR-4, in the test with 786-0, with EKVX and in the test with MOLT-4 was > 100 µM (inactive) each time. Moreover, the GI50 in the test on UO-31 and with KM12 was > 100 µM (inactive) each time.

In the case of `CCC1=CC2CN3CCc4c([nH]c5ccccc45)C(C(=O)OC)(C2)C13` (centres undefined), the GI50 is 45.6 µM (inactive) in the test on NCI-H23; 12.4 µM (inactive) in the test on HOP-92; 50.4 µM (inactive) with Malme-3M; 45.7 µM (inactive) in the test with NCI-H522; 61.8 µM (inactive) with LOX IMVI; 52.6 µM (inactive) in the test on NCI-H460. In addition, the GI50 in the test with A498 is 48.1 µM (inactive); in the test with COLO 205 it was 39.4 µM (inactive); in the test with OVCAR-8, 11 µM (inactive); with SF-539, 50.9 µM (inactive); with HCC 2998 it was 48.3 µM (inactive); with OVCAR-4 it was 37.2 µM (inactive). The GI50 in the test on EKVX was 36.7 µM (inactive); with MOLT-4, 39.8 µM (inactive); in the test on UO-31, 32.2 µM (inactive); in the test with KM12, 20 µM (inactive).

Take `O=C(CCC(=O)Nc1ccc(Cl)c(Cl)c1)CC(=O)c1ccc2ccccc2c1`: the GI50 is > 100 µM (inactive) with NCI-H23; > 100 µM (inactive) in the test with HOP-92; > 100 µM (inactive) with Malme-3M; 89.5 µM (inactive) in the test on NCI-H522; 39.8 µM (inactive) in the test with ACHN; > 100 µM (inactive) in the test on LOX IMVI. Moreover, the GI50 with NCI-H460, with A498, with OVCAR-8, in the test on SF-539, with HCC 2998 and with OVCAR-4 was > 100 µM (inactive) each time. In addition, the GI50 was > 100 µM (inactive) in the test with 786-0; > 100 µM (inactive) in the test on EKVX; 48.3 µM (inactive) in the test on MOLT-4; > 100 µM (inactive) with UO-31; 82 µM (inactive) in the test on KM12.

Regarding `CC(C)(C)C(=O)OCC1CCC(n2cnc3c(=O)[nH]c(N)nc32)O1` (centres undefined), the GI50 in the test on NCI-H23, in the test with HOP-92, in the test with Malme-3M, in the test with ACHN, with LOX IMVI and in the test with NCI-H460 was > 100 µM (inactive) throughout. Besides, the GI50 in the test on A498, in the test with COLO 205, in the test on OVCAR-8, in the test on SF-539, with HCC 2998 and with OVCAR-4 was > 100 µM (inactive) in each case. Further, the GI50 in the test on 786-0, in the test on EKVX, with UO-31 and in the test on KM12 was > 100 µM (inactive) in each case.

Regarding `O=C(CC(=O)N1N=C(c2ccccc2)C(/N=N/c2ccccc2Cl)C1=O)Nc1ccccc1Cl` (centres undefined), the GI50 was 39.8 µM (inactive) in the test with NCI-H23; 28.9 µM (inactive) in the test with NCI-H522; 20.2 µM (inactive) in the test with ACHN; 31.3 µM (inactive) in the test on LOX IMVI; 56.2 µM (inactive) with NCI-H460; > 10 µM (inactive) with A498. The GI50 was 31.6 µM (inactive) with COLO 205; 31.7 µM (inactive) with OVCAR-8; 29.9 µM (inactive) in the test on SF-539; > 100 µM (inactive) in the test on HCC 2998; 20.7 µM (inactive) with OVCAR-4; 20.8 µM (inactive) in the test with 786-0. Also, the GI50 in the test with EKVX was 33.1 µM (inactive); in the test with MOLT-4, 28.6 µM (inactive); in the test on UO-31, 57.9 µM (inactive); with KM12 it was 14.1 µM (inactive).

Take `C[C@]12CCc3nonc3C1CC[C@@H]1C2CC[C@]2(C)C(=O)CCC12` (some centres undefined): the GI50 in the test with NCI-H23 is 30.8 µM (inactive); in the test on HOP-92, 20 µM (inactive); in the test on Malme-3M, 24.9 µM (inactive); with NCI-H522 it was 19.8 µM (inactive); in the test on ACHN it was 74 µM (inactive); with LOX IMVI, 21.5 µM (inactive). Besides, the GI50 was > 100 µM (inactive) in the test with NCI-H460; 22.9 µM (inactive) with A498; 24.3 µM (inactive) in the test with COLO 205; 31.2 µM (inactive) with OVCAR-8; 20.9 µM (inactive) with SF-539; 26.5 µM (inactive) in the test on HCC 2998. In addition, the GI50 was > 100 µM (inactive) in the test on OVCAR-4; > 100 µM (inactive) in the test with 786-0; 17.1 µM (inactive) in the test with EKVX; 22.4 µM (inactive) in the test on MOLT-4; 20.6 µM (inactive) in the test on UO-31; 20.9 µM (inactive) with KM12.

As for `COc1cccc2c1C(=O)c1c(O)c3c(c(O)c1C2=O)C[C@](O)(C(=O)CO)CC3OC1CC(N)C(OC2CCCCO2)C(C)O1` (some centres undefined), the GI50 was 0.051 µM (active) in the test on NCI-H23; 0.239 µM (active) with HOP-92; 0.0752 µM (active) in the test with Malme-3M; 0.356 µM (active) in the test on NCI-H522; 0.232 µM (active) in the test on LOX IMVI; < 0.01 µM (active) in the test with NCI-H460. The GI50 was < 0.0411 µM (active) in the test on A498; 0.329 µM (active) in the test with COLO 205; 0.267 µM (active) with OVCAR-8; 0.123 µM (active) in the test on SF-539; 0.621 µM (active) in the test on HCC 2998; 0.659 µM (active) in the test on OVCAR-4. In addition, the GI50 in the test with EKVX was 0.916 µM (active); in the test with MOLT-4 it was < 0.01 µM (active); in the test with UO-31, 1.48 µM (inactive); with KM12, 0.375 µM (active).

Regarding `COc1cccc2c1C(=O)c1c(O)c3c(c(O)c1C2=O)C[C@@](O)(C(=O)CO)CC3OC1CC(NCCCC(OC(C)=O)OC(C)=O)C(O)C(C)O1` (some centres undefined), the GI50 with NCI-H23 was 0.00182 µM (active); with HOP-92, 0.00277 µM (active); in the test on Malme-3M, 0.00209 µM (active); with NCI-H522, 0.00129 µM (active); in the test with ACHN, 0.00243 µM (active); with LOX IMVI it was 0.000233 µM (active). Moreover, the GI50 was 0.000895 µM (active) in the test on NCI-H460; 0.0019 µM (active) in the test on A498; 0.00196 µM (active) in the test with OVCAR-8; 0.00229 µM (active) in the test with SF-539; 0.00228 µM (active) with HCC 2998; 0.00151 µM (active) with OVCAR-4. Also, the GI50 with 786-0 was 0.00219 µM (active); in the test with EKVX, 0.00277 µM (active); with MOLT-4, 0.00224 µM (active); in the test with UO-31, 0.00151 µM (active); in the test on KM12 it was 0.00279 µM (active).

As for `Nc1ncnc2c(C3OC(CO)C(O)C3O)n[nH]c12` (centres undefined), the GI50 was 1.12 µM (inactive) in the test on NCI-H23; 0.0513 µM (active) with HOP-92; 0.432 µM (active) with Malme-3M; 0.151 µM (active) in the test on NCI-H522; 0.0647 µM (active) in the test on LOX IMVI; 0.0826 µM (active) with NCI-H460. For the same compound, the GI50 in the test with A498 is 0.484 µM (active); with COLO 205, 2.42 µM (inactive); in the test on SF-539 it was 0.46 µM (active); in the test with HCC 2998, 0.0375 µM (active); in the test with OVCAR-4, 0.582 µM (active); in the test with EKVX it was 0.0646 µM (active). Moreover, the GI50 in the test with UO-31 was 0.0551 µM (active); in the test with KM12, 0.38 µM (active).
